These results are taken from patent US20230212170A1, “INHIBITORS OF KRAS G12C PROTEIN AND USES THEREOF” (SHANGHAI ANTENGENE CORPORATION LIMITED, priority 2020, published 2023).

Sequence of KRAS G12C (P01116 1-169 isoform P01116-2 G12C): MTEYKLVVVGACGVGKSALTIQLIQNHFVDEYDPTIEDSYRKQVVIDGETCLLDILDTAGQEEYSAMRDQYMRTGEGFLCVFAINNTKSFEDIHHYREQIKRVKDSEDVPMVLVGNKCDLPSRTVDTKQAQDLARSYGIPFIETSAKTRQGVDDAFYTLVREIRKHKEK

The assay deals with KRAS G12C (Homo sapiens, UniProt P01116, G12C). Kind of assay: KRAS G12C nucleotide exchange assay (SOS1-mediated, mant-GDP fluorescence). As to conditions: 15 min pre-incubation. The class given is biochemical. Details: KRas(1-169) G12C protein. As to the method:
Assay 1: KRAS G12C Nucleotide Exchange Assay
1×Loading buffer: 20 mM HEPES, pH 7.5, 50 mM NaCl, 0.5 mM MgCl2, 1 mM DTT, 5 mM EDTA
1×Equilibration buffer: 20 mM HEPES, pH 7.5, 150 mM NaCl, 1 mM MgCl2, 1 mM DTT
1×Assay buffer: 20 mM HEPES, pH 7.5, 150 mM NaCl, 1 mM MgCl2, 0.01% Tween-20, 1 mM DTT
2. Load Mant GDP to KRAS G12C:
a. A mixed solution of 100 µL mant GDP and KRAS G12C was prepared with 1×loading buffer: 60 um KRAS G12C, 600 um […], incubated at room temperature for 60 minutes, and the reaction was carried out in dark conditions.
b. Add 1 uL 1 m MgCl2 (final concentration 10 mm) to stop the reaction, mix the solution upside down in the centrifuge tube, centrifugate for 3-5 seconds, and incubate at room temperature for 30 minutes.
c. At the same time of incubation for 30 minutes, balance nap-5 column with 10 ml ix equipment buffer until no liquid drops.
d. Drop the mixed solution of 100 uL mant GDP and KRAS G12C into the center of nap-5 column. After the sample completely enters nap-5 column, add 400 µL 1× equipment buffer until no liquid drops.
e. Add 500 ul 1× equipment buffer for elution and collect eluant.
f. Determination of KRAS G12C mant GDP with Bradford protein quantitative Kit.
3. Nucleotide Exchange Experiment:
a. Transfer 50 NL DMSO/compound to 384 well plate with echo550.
b. 10 uL enzyme mix was added into 384 pore plate and incubated with DMSO/compound for 15 min.
c. Initial reaction with 10 µL Sos1/GTP mix.
d. Immediately after reaction, read ex360/em440 fluorescence value in kinetic mode with Nivo.
a. Use Graphpad software to process data and draw pictures.
b. K value is obtained in Graphpad software by fitting One phase experimental deck model.
c. Z′=1-3*(SdKmax+SdKmin)/(AveKmax−AveKmin)
d. In % is calculated by the following formula:
Inh%=(Kmax−Ksample)/(Kmax−Kmin)*100
As a reminder, the IC50 is the concentration at which inhibition is half-maximal. A high value points to lower potency. Consider `C=CC(=O)N1CCN(c2nc(OC[C@@H]3CCCN3C)nc3c2CCCC(c2c(C)ccc4[nH]ncc24)C3)CC1` (stereo partly drawn) [Compound 20, 1-(4-(8-(5-methyl-1H-indazol-4-yl)-2-(((S)-1-methylpyrrolidin-2-yl)methoxy)-6,7,8,9-tetrahydro-5H-cyclohepta[d]pyrimidin-4-yl)piperazin-1-yl)prop-2-en-1-one], for which the IC50 was 2.88 µM.
For `C=CC(=O)N1CCN(c2nc(OC[C@@H]3CCCN3C)nc3c(=O)n(-c4cccc5cccc(C6CC6)c45)c(C)nc23)C[C@@H]1CC#N` [Compound 10, 2-((S)-1-acryloyl-4-(7-(8-cyclopropylnaphthalen-1-yl)-6-methyl-2-(((S)-1-methylpyrrolidin-2-yl)methoxy)-8-oxo-7,8-dihydropyrimido [5,4-d]pyrimidin-4-yl)piperazin-2-yl)acetonitrile] the value was 0.84 µM; for `C=CC(=O)N1CCN(c2nc(OC[C@@H]3CCCN3C)nc3c(=O)n(-c4cccc5cccc(Cl)c45)c(CC)nc23)C[C@@H]1CC#N` [Compound 13, 2-((S)-1-acryloyl-4-(7-(8-chloronaphthalen-1-yl)-6-ethyl-2-(((S)-1-methylpyrrolidin-2-yl)methoxy)-8-oxo-7,8-dihydropyrimido[5,4-d]pyrimidin-4-yl)piperazin-2-yl)acetonitrile], 0.39 µM; for `C=CC(=O)N1C[C@H](C)N(c2nc(OC[C@@H]3CCCN3C)nc3c(=O)n(-c4cccc5cccc(Cl)c45)c(C)nc23)C[C@@H]1C` [Compound 8, 8-((2S,5S)-4-acryloyl-2,5-dimethylpiperazin-1-yl)-3-(8-chloronaphthalen-1-yl)-2-methyl-6-(((S)-1-methylpyrrolidin-2-yl)methoxy)pyrimido[5,4-d]pyrimidin-4(3H)-one], 60.7 µM.
With `C=CC(=O)N1CCN(c2nc(OC[C@@H]3CCCN3C)nc3c(=O)n(-c4c(C)ccc5[nH]ncc45)c(C)nc23)CC1` [Compound 22, (S)-8-(4-acryloylpiperazin-1-yl)-2-methyl-3-(5-methyl-1H-indazol-4-yl)-6-((1-methylpyrrolidin-2-yl)methoxy)pyrimido[5,4-d]pyrimidin-4(3H)-one] the figure was 22.9 µM.
For `C=CC(=O)N1CCN(c2nc(OC[C@@H]3CCCN3C)nc3c(=O)n(-c4cccc5cccc(C(=C)C)c45)c(C)nc23)C[C@@H]1CC#N` [Compound 11, 2-((S)-1-acryloyl-4-(6-methyl-2-(((S)-1-methylpyrrolidin-2-yl)methoxy)-8-oxo-7-(8-(prop-1-en-2-yl)naphthalen-1-yl)-7,8-dihydropyrimido[5,4-d]pyrimidin-4-yl)piperazin-2-yl)acetonitrile] the value was 2.94 µM.
The molecule `C=CC(=O)N1CCN(c2nc(OC[C@@H]3CCCN3C)nc3c(=O)n(-c4cccc5cccc(Cl)c45)c(C)nc23)CC1` [Compound 3, (S)-8-(4-acryloylpiperazin-1-yl)-3-(8-chloronaphthalen-1-yl)-2-methyl-6-((1-methylpyrrolidin-2-yl)methoxy)pyrimido[5,4-d]pyrimidin-4(3H)-one] registered an IC50 of 8.24 µM.
Turning to `C=CC(=O)N1CCN(c2nc(OC[C@@H]3CCCN3C)nc3c(=O)n(-c4cccc5ncccc45)c(C)nc23)C[C@@H]1CC#N` [Compound 15, 2-((S)-1-acryloyl-4-(6-methyl-2-(((S)-1-methylpyrrolidin-2-yl)methoxy)-8-oxo-7-(quinolin-5-yl)-7,8-dihydropyrimido[5,4-d]pyrimidin-4-yl)piperazin-2-yl)acetonitrile], 2.93 µM corresponded to half-maximal inhibition (IC50).
With `C=CC(=O)N1CCN(c2nc(OC[C@@H]3CCCN3C)nc3c(=O)n(-c4cccc5ccccc45)c(-c4ccccc4)nc23)C[C@@H]1CC#N` [Compound 17, 2-((S)-1-acryloyl-4-(2-(((S)-1-methylpyrrolidin-2-yl)methoxy)-7-(naphthalen-1-yl)-8-oxo-6-phenyl-7,8-dihydropyrimido[5,4-d]pyrimidin-4-yl)piperazin-2-yl)acetonitrile] the figure was 0.48 µM; with `C=CC(=O)N1CCN(c2nc(OC[C@@H]3CCCN3C)nc3c(=O)n(-c4cccc5cccc(CC)c45)c(C)nc23)C[C@@H]1CC#N` [Compound 9, 2-((S)-1-acryloyl-4-(7-(8-ethylnaphthalen-1-yl)-6-methyl-2-(((S)-1-methylpyrrolidin-2-yl)methoxy)-8-oxo-7,8-dihydropyrimido[5,4-d]pyrimidin-4-yl)piperazin-2-yl)acetonitrile], 1.07 µM.
In turn, `C=CC(=O)N1CCN(c2nc(OC[C@@H]3CCCN3C)nc3c(=O)n(-c4c(C)c(C)cc5[nH]ncc45)c(C)nc23)C[C@@H]1CC#N` [Compound 16, 2-((S)-1-acryloyl-4-(7-(5,6-dimethyl-1H-indazol-4-yl)-6-methyl-2-(((S)-1-methylpyrrolidin-2-yl)methoxy)-8-oxo-7,8-dihydropyrimido[5,4-d]pyrimidin-4-yl)piperazin-2-yl)acetonitrile] yielded an IC50 of 0.82 µM.
For `C=CC(=O)N1CCN(c2nc(OC[C@@H]3CCCN3C)nc3c(=O)n(-c4cccc5cccc(C)c45)c(C)nc23)C[C@@H]1CC#N` [Compound 7, 2-((S)-1-acryloyl-4-(6-methyl-7-(8-methylnaphthalen-1-yl)-2-(((S)-1-methylpyrrolidin-2-yl)methoxy)-8-oxo-7,8-dihydropyrimido[5,4-d]pyrimidin-4-yl)piperazin-2-yl)acetonitrile] the value was 0.39 µM.
For `C=CC(=O)N1CCN(c2nc(OC[C@@H]3CCCN3C)nc3c(=O)n(-c4cc(OC)cc5ccccc45)c(C)nc23)C[C@@H]1CC#N` [Compound 12, 2-((S)-1-acryloyl-4-(7-(3-methoxynaphthalen-1-yl)-6-methyl-2-(((S)-1-methylpyrrolidin-2-yl)methoxy)-8-oxo-7,8-dihydropyrimido[5,4-d]pyrimidin-4-yl)piperazin-2-yl)acetonitrile] the value was 0.9 µM.
With `C=CC(=O)N1CCN(c2nc(OC[C@@H]3CCCN3C)nc3c(=O)n(-c4cccc5ccccc45)c(-c4ccccc4)nc23)CC1` [Compound 18, (S)-8-(4-acryloylpiperazin-1-yl)-6-((1-methylpyrrolidin-2-yl)methoxy)-3-(naphthalen-1-yl)-2-phenylpyrimido[5,4-d]pyrimidin-4(3H)-one] the figure was 9.97 µM.
In turn, `C=CC(=O)N(C)C1CCN(c2nc(OC[C@@H]3CCCN3C)nc3c2CCN(c2cccc4cccc(Cl)c24)C3)C1` (stereo partly drawn) [Compound 21, N-(1-(7-(8-chloronaphthalen-1-yl)-2-(((S)-1-methylpyrrolidin-2-yl)methoxy)-5,6,7,8-tetrahydropyrido[3,4-d]pyrimidin-4-yl)pyrrolidin-3-yl)-N-methylacrylamide] came in with an IC50 of 19 µM.
For `C=CC(=O)N1CCN(c2nc(OC[C@@H]3CCCN3C)nc3c(=O)n(-c4cccc5ccccc45)c(C)nc23)CC1` [Example 1, (S)-8-(4-acryloylpiperazin-1-yl)-2-methyl-6-((1-methylpyrrolidin-2-yl)methoxy)-3-(naphthalen-1-yl)pyrimido[5,4-d]pyrimidin-4(3H)-one] the value was 35.4 µM; for `C=CC(=O)N1CCN(c2nc(OC[C@@H]3CCCN3C)nc3c(=O)n(-c4cccc5ccccc45)cnc23)CC1` [Compound 5, (S)-8-(4-acryloylpiperazin-1-yl)-6-((1-methylpyrrolidin-2-yl)methoxy)-3-(naphthalen-1-yl)pyrimido[5,4-d]pyrimidin-4(3H)-one], 52.3 µM; for `C=CC(=O)N1CCN(c2nc(OC[C@@H]3CCCN3C)nc3c(=O)n(-c4c(C)ccc5[nH]ncc45)c(C)nc23)C[C@@H]1CC#N` [Compound 23, 2-((S)-1-acryloyl-4-(6-methyl-7-(5-methyl-1H-indazol-4-yl)-2-(((S)-1-methylpyrrolidin-2-yl)methoxy)-8-oxo-7,8-dihydropyrimido[5,4-d]pyrimidin-4-yl)piperazin-2-yl)acetonitrile], 0.71 µM.
For `C=CC(=O)N1CCN(c2nc(OC[C@@H]3CCCN3C)nc3c(=O)n(-c4cccc5ccccc45)c(CC)nc23)C[C@@H]1CC#N` [Compound 14, 2-((S)-1-acryloyl-4-(6-ethyl-2-(((S)-1-methylpyrrolidin-2-yl)methoxy)-7-(naphthalen-1-yl)-8-oxo-7,8-dihydropyrimido[5,4-d]pyrimidin-4-yl)piperazin-2-yl)acetonitrile] the value was 0.86 µM; for `C=CC(=O)N1CCN(c2nc(OC[C@@H]3CCCN3C)nc3c(=O)n(-c4cccc5cccc(C)c45)c(C)nc23)CC1` [Compound 6, (S)-8-(4-acryloylpiperazin-1-yl)-2-methyl-3-(8-methylnaphthalen-1-yl)-6-((1-methylpyrrolidin-2-yl)methoxy)pyrimido[5,4-d]pyrimidin-4(3H)-one], 1.78 µM.
